Measured values from PubChem BioAssay AID330 (DTP/NCI, 2004).
Several values for one entry are separate records, joined by “and”; a condition that tells them apart may be missing. Equal entries are not always repeated. Toxic doses and inconclusive results are not listed.

Tested on: P388 leukemia ip, CD2F1 mice, survival T/C
Test: NCI In Vivo Anticancer Drug Screen. Data for tumor model P388 Leukemia (intraperitoneal) in CD2F1 (CDF1) mice
Details: endpoint: median survival time, higher = longer survival
Procedure, shortened: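 Mice carrying the transplanted tumor received test compound or vehicle. Survival was recorded in each group, and the value is the treated-group measurement divided by that of the vehicle-treated control group.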

[1] = dose: 60.0 mg/kg/injection, schedule: Q01DX005 (ip), vehicle: saline with Tween-80
[2] = dose: 120.0 mg/kg/injection, schedule: Q01DX005 (ip), vehicle: saline with Tween-80
[3] = dose: 240.0 mg/kg/injection, schedule: Q01DX005 (ip), vehicle: saline with Tween-80
[4] = dose: 50.0 mg/kg/injection, schedule: Q01DX009 (ip), vehicle: Klucel (hydroxypropylcellulose) (HPC)
[5] = dose: 100.0 mg/kg/injection, schedule: Q01DX009 (ip), vehicle: Klucel (hydroxypropylcellulose) (HPC)
[6] = dose: 200.0 mg/kg/injection, schedule: Q01DX009 (ip), vehicle: Klucel (hydroxypropylcellulose) (HPC)
[7] = dose: 100.0 mg/kg/injection, schedule: Q04DX003 (ip), vehicle: Klucel (hydroxypropylcellulose) (HPC)
[8] = dose: 200.0 mg/kg/injection, schedule: Q04DX003 (ip), vehicle: Klucel (hydroxypropylcellulose) (HPC)
[9] = dose: 400.0 mg/kg/injection, schedule: Q04DX003 (ip), vehicle: Klucel (hydroxypropylcellulose) (HPC)
[10] = dose: 100.0 mg/kg/injection, schedule: Q01DX001 (ip), vehicle: Klucel (hydroxypropylcellulose) (HPC)
[11] = dose: 200.0 mg/kg/injection, schedule: Q01DX001 (ip), vehicle: Klucel (hydroxypropylcellulose) (HPC)
[12] = dose: 400.0 mg/kg/injection, schedule: Q01DX001 (ip), vehicle: Klucel (hydroxypropylcellulose) (HPC)
[13] = dose: 60.0 mg/kg/injection, schedule: Q01DX005 (ip), vehicle: saline
[14] = dose: 120.0 mg/kg/injection, schedule: Q01DX005 (ip), vehicle: saline
[15] = dose: 240.0 mg/kg/injection, schedule: Q01DX005 (ip), vehicle: saline

SMILES: COC(=O)C1CC(I)C2OC(=O)C1C2C(=O)OC (stereo not drawn)
- T/C [1]: 91 % of control
- T/C [2]: 99 % of control
- T/C [3]: 97 % of control

SMILES: O=C(NCc1nc2ncc(Br)cc2[nH]1)c1ccccc1
- T/C (dose: 100.0 mg/kg/injection, schedule: Q01DX001 (ip), vehicle: saline with Tween-80): 100 % of control
- T/C (dose: 200.0 mg/kg/injection, schedule: Q01DX001 (ip), vehicle: saline with Tween-80): 100 % of control
- T/C (dose: 400.0 mg/kg/injection, schedule: Q01DX001 (ip), vehicle: saline with Tween-80): 98 % of control

SMILES: COc1ccc(NC(=S)Nc2ccccc2C(F)(F)F)c(OC)c1
- T/C [4]: 99 % of control
- T/C [5]: 95 % of control
- T/C [6]: 94 % of control

SMILES: COC(=O)c1nc(SC)[nH]c1CC(N)=O
- T/C [1]: 101 % of control
- T/C [2]: 100 % of control
- T/C [3]: 96 % of control

SMILES: COc1ccc2nc(C)c(C(=O)O)c(C(=O)O)c2c1
- T/C (dose: 50.0 mg/kg/injection, schedule: Q01DX009 (ip), vehicle: suspension in saline): 99 % of control
- T/C (dose: 100.0 mg/kg/injection, schedule: Q01DX009 (ip), vehicle: suspension in saline): 103 % of control
- T/C (dose: 200.0 mg/kg/injection, schedule: Q01DX009 (ip), vehicle: suspension in saline): 108 % of control

SMILES: Cc1ccc(S(=O)(=O)N/N=C/C=N/NS(=O)(=O)c2ccc(C)cc2)cc1
- T/C (dose: 12.5 mg/kg/injection, schedule: Q01DX009 (ip), vehicle: other): 106 % of control
- T/C (dose: 25.0 mg/kg/injection, schedule: Q01DX009 (ip), vehicle: other): 107 % of control
- T/C (dose: 50.0 mg/kg/injection, schedule: Q01DX009 (ip), vehicle: other): 105 % of control
- T/C (dose: 100.0 mg/kg/injection, schedule: Q01DX009 (ip), vehicle: other): 96 % of control
- T/C (dose: 200.0 mg/kg/injection, schedule: Q01DX009 (ip), vehicle: other): 97 % of control

SMILES: Nc1ccc(NCCCC2CCCN3CCCCC23)c2c(=O)c3ccccc3sc12 (stereo not drawn)
- T/C (dose: 13.5 mg/kg/injection, schedule: Q01DX005 (ip), vehicle: saline with Tween-80): 104 % of control
- T/C (dose: 27.0 mg/kg/injection, schedule: Q01DX005 (ip), vehicle: saline with Tween-80): 91 % of control
- T/C (dose: 54.0 mg/kg/injection, schedule: Q01DX005 (ip), vehicle: saline with Tween-80): 101 % of control
- T/C (dose: 100.0 mg/kg/injection, schedule: Q01DX005 (ip), vehicle: saline with Tween-80): 110 % of control
- T/C (dose: 108.0 mg/kg/injection, schedule: Q01DX005 (ip), vehicle: saline with Tween-80): 107 % of control
- T/C (dose: 200.0 mg/kg/injection, schedule: Q01DX005 (ip), vehicle: saline with Tween-80): 120 % of control

SMILES: COc1cc2c3c(c1O)-c1c(cccc1OC)CC3N(C)CC2 (stereo not drawn)
- T/C (dose: 12.5 mg/kg/injection, schedule: Q04DX003 (ip), vehicle: saline with Tween-80): 90 % of control
- T/C (dose: 25.0 mg/kg/injection, schedule: Q04DX003 (ip), vehicle: saline with Tween-80): 100 % of control and 88 % of control

SMILES: CCCC1(c2ccccc2)CCCC(C#N)C1=N (stereo not drawn)
- T/C [7]: 97 % of control
- T/C [8]: 98 % of control
- T/C [9]: 92 % of control

SMILES: CN1C(=O)Cn2c(nn(Cc3ccccc3)c(=O)c2=O)-c2cc(Cl)ccc21
- T/C [10]: 96 % of control
- T/C [11]: 101 % of control
- T/C [12]: 99 % of control

SMILES: BrC1=CC(Br)=C2N=C(C(Br)(Br)Br)N=C3N=C(C(Br)(Br)Br)N=C1N32
- T/C (dose: 15.0 mg/kg/injection, schedule: Q01DX005 (ip), vehicle: Klucel + Tween-80): 106 % of control
- T/C (dose: 30.0 mg/kg/injection, schedule: Q01DX005 (ip), vehicle: Klucel + Tween-80): 109 % of control
- T/C (dose: 60.0 mg/kg/injection, schedule: Q01DX005 (ip), vehicle: Klucel + Tween-80): 103 % of control and 110 % of control

SMILES: CN(Cc1cnc2nc(N)nc(N)c2n1)c1c(Cl)cc(C(=O)NC(CCC(=O)O)C(=O)O)cc1Cl (stereo not drawn)
- T/C (dose: 25.0 mg/kg/injection, schedule: Q01DX005 (ip), vehicle: suspension in saline): 158 % of control
- T/C (dose: 25.0 mg/kg/injection, schedule: Q01DX005 (iv), vehicle: suspension in saline): 119 % of control
- T/C (dose: 50.0 mg/kg/injection, schedule: Q01DX005 (ip), vehicle: suspension in saline): 169 % of control
- T/C (dose: 100.0 mg/kg/injection, schedule: Q01DX005 (ip), vehicle: suspension in saline): 178 % of control
- T/C (dose: 100.0 mg/kg/injection, schedule: Q01DX005 (iv), vehicle: suspension in saline): 165 % of control
- T/C (dose: 100.0 mg/kg/injection, schedule: Q04DX003 (ip), vehicle: saline with Tween-80): 195 % of control
- T/C (dose: 200.0 mg/kg/injection, schedule: Q01DX005 (ip), vehicle: suspension in saline): 190 % of control
- T/C (dose: 200.0 mg/kg/injection, schedule: Q04DX003 (ip), vehicle: saline with Tween-80): 222 % of control
- T/C (dose: 264.0 mg/kg/injection, schedule: Q04DX003 (ip), vehicle: saline with Tween-80): 245 % of control
- T/C (dose: 400.0 mg/kg/injection, schedule: Q04DX003 (ip), vehicle: saline with Tween-80): 109 % of control and 240 % of control
- T/C (dose: 600.0 mg/kg/injection, schedule: Q04DX003 (ip), vehicle: saline with Tween-80): 259 % of control

SMILES: NC(=O)NC1(C(=O)O)CCCC1
- T/C (dose: 25.0 mg/kg/injection, schedule: Q01DX009 (ip), vehicle: Klucel (hydroxypropylcellulose) (HPC)): 102 % of control
- T/C [4]: 103 % of control
- T/C [5]: 103 % of control
- T/C [6]: 105 % of control

SMILES: COc1ccc(S(=O)(=O)O)cc1NS(=O)(=O)c1ccc(C)cc1
- T/C [13]: 102 % of control
- T/C [14]: 98 % of control
- T/C [15]: 103 % of control

SMILES: C=C(C(=O)OC)C1C=CC2OC(C)(C)OCC2O1 (stereo not drawn)
- T/C [13]: 113 % of control
- T/C [14]: 106 % of control
- T/C [15]: 109 % of control

SMILES: CCOC(=O)NCCCCC(N)C(=O)O (stereo not drawn)
- T/C (dose: 50.0 mg/kg/injection, schedule: Q01DX009 (ip), vehicle: saline): 97 % of control
- T/C (dose: 100.0 mg/kg/injection, schedule: Q01DX009 (ip), vehicle: saline): 102 % of control
- T/C (dose: 200.0 mg/kg/injection, schedule: Q01DX009 (ip), vehicle: saline): 102 % of control

SMILES: O=c1[nH]oc(=O)[nH]1
- T/C (dose: 6.25 mg/kg/injection, schedule: Q01DX005 (ip), vehicle: saline): 95 % of control
- T/C (dose: 12.5 mg/kg/injection, schedule: Q01DX005 (ip), vehicle: saline): 97 % of control
- T/C (dose: 25.0 mg/kg/injection, schedule: Q01DX005 (ip), vehicle: saline): 94 % of control
- T/C (dose: 50.0 mg/kg/injection, schedule: Q01DX005 (ip), vehicle: saline): 100 % of control and 91 % of control
- T/C (dose: 200.0 mg/kg/injection, schedule: Q01DX005 (ip), vehicle: saline): 100 % of control

SMILES: Cc1ccc2[nH]c(C)c(C(=O)c3cccnc3)c2c1
- T/C [7]: 92 % of control
- T/C [8]: 91 % of control
- T/C [9]: 110 % of control

SMILES: CC(=O)OC1=CC(=O)N(C(=O)c2ccc(Cl)cc2)C1
- T/C [4]: 109 % of control
- T/C [5]: 115 % of control
- T/C [6]: 115 % of control

SMILES: CSC(=S)n1nc(-c2ccccc2)c(N=Nc2ccccc2[N+](=O)[O-])c1C
- T/C [10]: 98 % of control
- T/C [11]: 102 % of control
- T/C [12]: 103 % of control

SMILES: COc1ccc2c(c1OC)CCN1C3=C(CC(OC(=O)c4ccccc4)CC3)C(=O)CC21 (stereo not drawn)
- T/C (dose: 100.0 mg/kg/injection, schedule: Q01DX001 (ip), vehicle: saline sonified): 100 % of control
- T/C (dose: 200.0 mg/kg/injection, schedule: Q01DX001 (ip), vehicle: saline sonified): 110 % of control
- T/C (dose: 400.0 mg/kg/injection, schedule: Q01DX001 (ip), vehicle: saline sonified): 110 % of control

SMILES: c1ccc(-c2c[s+]cs2)cc1
- T/C (dose: 6.25 mg/kg/injection, schedule: Q01DX009 (ip), vehicle: distilled water + Tween-80): 111 % of control
- T/C (dose: 12.5 mg/kg/injection, schedule: Q01DX009 (ip), vehicle: distilled water + Tween-80): 107 % of control and 114 % of control
- T/C (dose: 25.0 mg/kg/injection, schedule: Q01DX009 (ip), vehicle: distilled water + Tween-80): 121 % of control and 123 % of control
- T/C (dose: 50.0 mg/kg/injection, schedule: Q01DX009 (ip), vehicle: distilled water + Tween-80): 104 % of control
- T/C (dose: 100.0 mg/kg/injection, schedule: Q01DX009 (ip), vehicle: distilled water + Tween-80): 114 % of control
